Measured values reported in patent US10239903B2, “Pt (IV) derivatives and nanocarriers comprising them” (Yissum Research Development Company of the Hebrew …, priority 2014, dated 2019).

Tests used:
[1] = system: A2780 cell line; test: MTT cytotoxicity assay; format: cell-based; details: cisplatin sensitive parent line
Experimental: (§1) To evaluate the efficacy of the various drugs, cells were seeded in a sterile, 24-well plate and incubated in the presence of the drug for 72 h/120 h at 37° C., 5% CO2. The number of cells alive was quantified using (3-(4,5-dimethylthiazol-2-yl)-2,5 diphenyltetrazolium bromide) (MTT) assay. The cells were incubated for 2 h with MTT, DMSO was added to dissolve the crystals and the plates were measured at 540 nm. Viability (%) graphs were constructed relative to the control of every assay. The data were plotted in a graph, lines connected the points, and the values were determined from the interpolated graph.

[2] = system: A2780-cisR cell line; test: MTT cytotoxicity assay; format: cell-based; details: for IC50: cisplatin resistant line; for RF, resistance factor: ratio of IC50 in A2780-cisR to A2780
Experimental: as §1

[3] = system: A549 cell line; test: MTT cytotoxicity assay; format: cell-based; details: 120 h treatment
Experimental: A549, BxPC-3 and OVCAR-8 cells were grown in RPMI medium supplemented with 10% fetal bovine serum (Gibco), 1% L-glutamine, 100 U/ml penicillin, 100 ug/ml streptomycin and 0.13% w/w gentamycin. […] The cell lines were maintained at 37° C. under 5% CO2. All cell culture products were obtained from Biological Industries (Beit HaEmek, Israel). The drugs were dissolved in DMSO and were added to the appropriate medium. Drug concentrations were chosen in a range that would never expose cells to more than 0.5% DMSO i.e. for 50 μg/ml maximal concentration; 0.5 mg of OXA-PAL-ACT was dissolved in 50 μl DMSO and then added to 10 ml cell medium.
as §1

[4] = system: HCT-15 cell line; test: MTT cytotoxicity assay; format: cell-based; details: 120 h treatment
Experimental: as §1

[5] = system: A498 cell line; test: MTT cytotoxicity assay; format: cell-based; details: 120 h treatment
Experimental: as §1

[6] = system: A375 cell line; test: MTT cytotoxicity assay; format: cell-based; details: 120 h treatment
Experimental: as §1

[7] = system: CT-26-luc cell line; test: MTT antiproliferative assay; format: cell-based, murine; details: 120 h incubation
[8] = Reduction potentials by cyclic voltammetry; format: physicochemical; details: versus Ag/AgCl
[9] = system: PC-3 cell line; test: MTT cytotoxicity assay
Experimental: (§2) The in vitro experiments were performed in cell lines of lung cancer (A549), prostate cancer (DU145 and PC-3), pancreatic cancer (BxPC-3) and ovarian cancer (SKOV-3 and OVCAR-8). A549, BxPC-3 and OVCAR-8 cells were grown in RPMI medium supplemented with 10% fetal bovine serum (Gibco), 1% L-glutamine, 100 U/ml penicillin, 100 ug/ml streptomycin and 0.13% w/w gentamycin. PC-3 cells were cultured in DMEM plus 10% fetal bovine serum, 1% L-glutamine, 100 U/ml penicillin, 100 μg/ml streptomycin and 1% pyrovate. DU145 cells were grown in RPMI1640 medium supplemented with 10% fetal bovine serum, 100 U/ml penicillin, and 100 ug/ml streptomycin. SKOV-3 cells were cultured McCoy's 5A medium supplemented with 10% fetal bovine serum, 100 U/ml penicillin, and 100 ug/ml streptomycin. The cell lines were maintained at 37° C. under 5% CO2. […] The drugs were dissolved in DMSO and were added to the appropriate medium. Drug concentrations were chosen in a range that would never expose cells to more than 0.5% DMSO i.e. for 50 μg/ml maximal concentration; 0.5 mg of OXA-PAL-ACT was dissolved in 50 μl DMSO and then added to 10 ml cell medium.
as §1
(§3) The cells were treated continuously for 120 h.

[10] = system: PC-3 LUC cell line; test: MTT cytotoxicity assay
Experimental: as §1, §3

[11] = system: BxPC-3 cell line; test: MTT cytotoxicity assay
Experimental: as §2, §1, §3

[12] = system: OVCAR-8 cell line; test: MTT cytotoxicity assay
Experimental: as §2, §1, §3

[13] = system: SKOV-3 cell line; test: MTT cytotoxicity assay
Experimental: as §2, §1, §3

[14] = Log P determination, shake flask method; details: n-octanol and water
Experimental: The partition coefficient of the new Pt compounds was determined in n-octanol and water by shake flask method.

Structure (SMILES)	IC50 [1]	IC50 [2]	RF, resistance factor [2]	IC50 A549 [3]	IC50 HCT-15 [4]	IC50 A498 [5]	IC50 A375 [6]	IC50 [7]	Ep, reduction potential [8]	IC50 PC-3 ([9]; 120 h treatment)	IC50 ([9]; read-out: IC50 PC-3, 120 h incubation)	IC50 PC-3 LUC ([10]; 120 h treatment)	IC50 ([10]; read-out: IC50 PC-3-luc, 120 h incubation)	IC50 BXPC-3 ([11]; 120 h treatment)	IC50 ([11]; read-out: IC50 BxPC-3, 120 h incubation)	IC50 OVCAR-8 ([12]; 120 h treatment)	IC50 ([12]; read-out: IC50 OVCAR-8, 120 h incubation)	IC50 SKOV-3 ([13]; 120 h treatment)	IC50 ([13]; read-out: IC50 SKOV-3, 120 h incubation)	Measured logP [14]
CCCCCCCCCCCCCCCC(=O)[O][Pt]1([O]C(=O)CCC(=O)O)[O]C(=O)C(=O)[O]1.NC1CCCCC1N [OXA-PAL-SUCC]	0.46 ± 0.01 µM	1.9 ± 0.2 µM	4.13	0.45 µg/mL	0.35 µg/mL	0.24 µg/mL	0.19 µg/mL	4.43 ± 0.93 µM	−0.60 ± 0.01 V	0.35 ± 0.01 µg/mL	0.45 ± 0.01 µM	0.78 ± 0.88 µg/mL	1.01 ± 1.13 µM	1.23 ± 1.18 µg/mL	1.59 ± 1.52 µM	2.83 ± 0.38 µg/mL	3.67 ± 0.49 µM	20.67 ± 15.88 µg/mL	26.9 ± 20.6 µM	2.07
N.N.[Cl][Pt][Cl] [Cisplatin, cisplatin, reference compound]	0.94 ± 0.04 µM	14.6 ± 1.44 µM	15.53	8.35 µg/mL	11.32 µg/mL	17.53 µg/mL	3.75 ± 1.77 µg/mL	–	–	–	–	–	–	–	–	–	–	–	–	–
